The target of assay [1] is T1, Prostaglandin E synthase (Homo sapiens, UniProt O14684).
T1 sequence (O14684 whole entry): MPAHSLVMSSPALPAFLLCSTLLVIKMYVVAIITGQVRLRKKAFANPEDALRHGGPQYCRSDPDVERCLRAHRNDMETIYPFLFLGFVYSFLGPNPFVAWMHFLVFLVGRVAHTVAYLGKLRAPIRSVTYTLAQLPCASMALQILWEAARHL
The experiment in a line: Inhibition of recombinant human microsomal PGES1 using PGH2 as substrate preincubated for 15 mins followed by substrate addition measured after 5 mins by enzyme immunoassay.

Assay [2] deals with T1, Prostaglandin E synthase. The experiment in a line: Inhibition of microsomal PGES1 (unknown origin).
Assay [3] deals with T1, Prostaglandin E synthase. The assay can be described thus: Inhibition of microsomal PGES1 in ILbeta-stimulated human A549 cells using PGH2 as substrate preincubated for 15 mins followed by substrate addition measured after 1 min by RP-HPLC analysis. The format is cell-based.
Assay [4] can be described thus: Inhibition of recombinant rat microsomal PGES1 using PGH2 as substrate incubated for 90 secs by MDA-TBA assay.
Assay [5] concerns the target T1, Prostaglandin E synthase. The assay can be described thus: Inhibition of human microsomal PGES1 using PGH2 as substrate incubated for 90 secs by MDA-TBA assay.
Assay [6] is described as follows: Inhibition of recombinant rat microsomal PGES1 using PGH2 as substrate after 75 secs by MDA-TBA assay.
For assay [7], the target named is T1, Prostaglandin E synthase. The assay can be described thus: Inhibition of human microsomal PGES1 using PGH2 as substrate incubated after 75 secs by MDA-TBA assay.
The target in assay [8] is T2, Prostaglandin E synthase (Mus musculus) (UniProt Q9JM51).
T2 sequence (whole entry): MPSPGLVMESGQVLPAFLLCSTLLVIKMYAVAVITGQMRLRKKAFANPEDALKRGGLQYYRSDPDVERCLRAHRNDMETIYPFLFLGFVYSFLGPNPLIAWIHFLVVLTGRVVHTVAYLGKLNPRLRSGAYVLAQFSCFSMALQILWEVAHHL
The assay can be described thus: Inhibition of microsomal PGES1 in mouse J774 cells assessed as reduction of LPS-induced PGE2 production inhibition at 100 uM by radioimmuno assay in presence of radio labelled PGE2. The format is cell-based.

Assay [9] deals with T1, Prostaglandin E synthase. The assay can be described thus: Inhibition of microsomal PGES1 in ILbeta/TNFalpha-stimulated human A549 cells using PGH2 as substrate preincubated for 15 mins followed by substrate addition measured after 1 min by LC-MS/MS analysis. The format is cell-based.
In assay [10] the target is Prostaglandin G/H synthase 1 (Homo sapiens, UniProt P23219). The experiment in a line: Inhibition of COX1 (unknown origin).
Assay [11] addresses T3, Prostaglandin G/H synthase 2 (Homo sapiens, UniProt P35354).
T3 sequence (P35354 whole entry): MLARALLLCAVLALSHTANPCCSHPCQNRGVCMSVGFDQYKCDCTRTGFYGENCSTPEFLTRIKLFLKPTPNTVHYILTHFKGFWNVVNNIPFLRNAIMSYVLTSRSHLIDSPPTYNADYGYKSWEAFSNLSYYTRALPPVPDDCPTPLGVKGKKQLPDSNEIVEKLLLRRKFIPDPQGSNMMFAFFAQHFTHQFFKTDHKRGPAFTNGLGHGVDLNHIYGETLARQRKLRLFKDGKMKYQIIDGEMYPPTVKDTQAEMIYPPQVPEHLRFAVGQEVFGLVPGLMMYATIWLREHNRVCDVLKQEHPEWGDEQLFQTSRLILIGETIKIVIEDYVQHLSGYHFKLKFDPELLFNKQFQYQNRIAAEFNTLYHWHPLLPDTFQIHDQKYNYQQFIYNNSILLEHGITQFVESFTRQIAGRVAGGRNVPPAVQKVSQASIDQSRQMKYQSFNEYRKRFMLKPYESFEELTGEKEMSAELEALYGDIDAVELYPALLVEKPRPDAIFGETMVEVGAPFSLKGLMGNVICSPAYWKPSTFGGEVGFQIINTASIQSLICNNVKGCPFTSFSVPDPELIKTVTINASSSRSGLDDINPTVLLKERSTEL
The assay can be described thus: Inhibition of COX2 in IL1beta-induced human A549 cells using arachidonic acid as substrate assessed as 6-keto PGF1a formation preincubated for 10 mins followed by substrate addition measured after 30 mins by enzyme immunoassay. The format is cell-based.

In assay [12] the target is T4, Polyunsaturated fatty acid 5-lipoxygenase (Homo sapiens, UniProt P09917).
T4 sequence (P09917 whole entry): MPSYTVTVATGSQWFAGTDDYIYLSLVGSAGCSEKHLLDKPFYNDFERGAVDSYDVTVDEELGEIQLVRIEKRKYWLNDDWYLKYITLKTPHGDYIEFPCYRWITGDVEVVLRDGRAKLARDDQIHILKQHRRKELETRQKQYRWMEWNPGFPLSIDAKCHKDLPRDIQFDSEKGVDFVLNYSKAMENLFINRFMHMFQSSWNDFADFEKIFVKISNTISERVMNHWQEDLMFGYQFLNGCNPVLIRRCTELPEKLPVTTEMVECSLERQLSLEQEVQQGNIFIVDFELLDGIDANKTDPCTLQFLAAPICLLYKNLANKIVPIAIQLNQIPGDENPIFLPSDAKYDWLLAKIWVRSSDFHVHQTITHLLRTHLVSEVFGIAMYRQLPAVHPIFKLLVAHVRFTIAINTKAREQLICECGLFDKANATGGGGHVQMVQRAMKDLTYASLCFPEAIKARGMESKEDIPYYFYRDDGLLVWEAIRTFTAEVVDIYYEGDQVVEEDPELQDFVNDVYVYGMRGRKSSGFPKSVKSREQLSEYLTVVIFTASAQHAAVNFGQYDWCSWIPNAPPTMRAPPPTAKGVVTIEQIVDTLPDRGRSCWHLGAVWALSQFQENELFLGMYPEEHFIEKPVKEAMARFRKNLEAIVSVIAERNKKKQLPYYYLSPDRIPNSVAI
The assay can be described thus: Inhibition of 5-lipooxygenase (unknown origin).

The structures appear in SMILES notation. Some results are limits rather than exact numbers.

Sequence of Prostaglandin G/H synthase 1 (P23219 whole entry): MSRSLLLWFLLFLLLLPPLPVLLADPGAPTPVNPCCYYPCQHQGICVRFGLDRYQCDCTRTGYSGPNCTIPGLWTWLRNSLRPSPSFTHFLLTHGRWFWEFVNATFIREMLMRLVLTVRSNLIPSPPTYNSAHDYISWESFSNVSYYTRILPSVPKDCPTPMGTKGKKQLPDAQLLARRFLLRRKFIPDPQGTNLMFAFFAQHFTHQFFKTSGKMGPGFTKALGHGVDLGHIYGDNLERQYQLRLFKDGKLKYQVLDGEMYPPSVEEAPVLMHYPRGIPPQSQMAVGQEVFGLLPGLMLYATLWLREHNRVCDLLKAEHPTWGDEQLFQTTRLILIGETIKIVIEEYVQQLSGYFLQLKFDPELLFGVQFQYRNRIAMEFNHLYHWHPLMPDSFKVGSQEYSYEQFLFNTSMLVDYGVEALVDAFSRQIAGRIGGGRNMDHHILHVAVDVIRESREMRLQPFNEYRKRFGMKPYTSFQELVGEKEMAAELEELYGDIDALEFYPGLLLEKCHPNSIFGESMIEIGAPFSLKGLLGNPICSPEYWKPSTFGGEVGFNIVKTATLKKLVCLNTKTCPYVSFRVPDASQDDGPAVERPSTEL

For `O=C(Nc1ccc2c(c1)c1ccccc1n2CCO)c1ccccc1C(F)(F)F`, the IC50 on Prostaglandin E synthase [1] is 0.9 µM.
With `Cc1ccc(C)c(-c2cc(C(F)(F)F)nn2-c2ccc(S(N)(=O)=O)cc2)c1` [DIMETHYL CELECOXIB], the IC50 on Prostaglandin E synthase [2] (read-out: IC50) amounted to 0.6 µM.
With `CC(C)c1cc2c(c(O)c1O)[C@@]13CCCC(C)(C)[C@@H]1C[C@@H]2OC3=O` [CARNOSOL], the IC50 at Prostaglandin E synthase [3] was 5 µM.
As to `Cc1cc2nc(N3CCC(C(=O)NC4CCCC4)CC3)n(C(C)C)c2cc1C`, the IC50 in assay [4] is 0.9 µM; at Prostaglandin E synthase [5] it was 0.09 µM.
At Prostaglandin E synthase [3], `COc1cc(/C=C/C(=O)CC(=O)/C=C/c2ccc(O)c(OC)c2)ccc1O` [CURCUMIN] registered an IC50 of 0.2 µM.
The same measure, in the same setting: next, `CC(=O)c1c(O)c(CC=C(C)C)c(O)c(C(c2ccccc2)c2c(O)cc(C)oc2=O)c1O` (stereo unspecified): 1 µM; `CCc1oc(=O)c(C(c2ccccc2)c2c(O)c(CC=C(C)C)c(O)c(C(C)=O)c2O)c(O)c1C` (stereo unspecified): 0.8 µM.
Turning to `Cc1c(CC(C)(C)C(=O)O)n(Cc2ccc(Cl)cc2)c2cc(F)c(-c3ccccc3Cl)cc12`, the IC50 on Prostaglandin E synthase [2] (read-out: pIC50 (converted)) was 0.00501 µM.
Regarding `CC1=NN(C(N)=S)C(=O)/C1=N/Nc1cccc(Br)c1`, the values for the IC50 (in [6]; on Prostaglandin E synthase [7]) were 0.62 µM and 1.8 µM, respectively.
For `O=C1c2c(O)cc(O)cc2OC(c2ccc(O)cc2)C1O` (stereo unspecified), the inhibition (as a rule, the relative decrease from the control value, in per cent) in assay [8] was 93.1%.
As for `COc1cc(C(=O)NS(=O)(=O)c2ccccc2C)ccc1Cc1cn(C)c2ccc(NC(=O)OC3CCCC3)cc12` [ZAFIRLUKAST], the IC50 against Prostaglandin E synthase [9] came to 18.1 µM.
`CCCCCc1cc(OC(=O)c2c(O)cc(O)cc2CCCCC)cc(O)c1C(=O)O`: the IC50 in assay [10] is > 30 µM; against Prostaglandin E synthase [3] it was 0.4 µM.
Regarding `O=C(Nc1cccc2ccccc12)c1cccc(NC(=O)c2ccccc2Cl)c1`, the IC50 on Prostaglandin E synthase [2] (read-out: IC50) amounted to 0.2 µM.
Take `CC(=O)c1ccccc1-c1cc2c(C)c(CC(C)(C)C(=O)O)n(Cc3ccc(Cl)cc3)c2cc1F`: on Prostaglandin E synthase [2] (read-out: pIC50 (converted)), the IC50 was 0.00398 µM.
Take `CCCCCC(=O)Cc1cc(O)cc(O)c1C(=O)Oc1cc(O)c(C(=O)O)c(CCCCC)c1`: the IC50 was > 30 µM in assay [10] and 1.15 µM against Prostaglandin E synthase [3].
Turning to `CCc1oc(=O)c(Cc2c(O)c(CC=C(C)C)c(O)c(C(C)=O)c2O)c(O)c1C` [ARZANOL], the IC50 in assay [11] is ≥ 30 µM.
Regarding `CCCCCC(=O)Cc1cc(O)cc2c1C(=O)Oc1cc(O)c(C(=O)O)c(CCCCC)c1O2` [PHYSODIC ACID], the values for the IC50 (in assay [10]; against Prostaglandin E synthase [3]) were > 30 µM and 0.43 µM, respectively.
Consider `COc1ccccc1-c1cc2c(C)c(CC(C)(C)C(=O)O)n(Cc3ccc(Cl)cc3)c2cc1F`, for which the IC50 on Prostaglandin E synthase [2] (read-out: pIC50 (converted)) was 0.00692 µM.
`COc1cc(O)ccc1C1Oc2cc(O)cc(O)c2C(=O)C1O` (stereo unspecified): the inhibition in assay [8] was determined as 94.3%.
The compound `CC(C)c1cc2c(c(O)c1O)[C@@]1(C(=O)O)CCCC(C)(C)[C@@H]1CC2` [CARNOSIC ACID] showed an IC50 against Prostaglandin E synthase [3] of 5 µM.
On to `CCCCCCC(Sc1nc(Cl)cc(Nc2cccc(C)c2C)n1)C(=O)O` (stereo unspecified), for which the IC50 in assay [12] amounted to 2 µM.
